Earlier results, collected in patent US8784850B2, “Highly biocompatible dual thermogelling chitosan/glucosamine salt composition” (Oligo Médic Inc., priority 2010, dated 2014).

Columns and labels:
rats [1] = conditions: ingestion of 300 to 2149 mg/kg of body weight
rabbits [2] = conditions: ingestion of 300 to 2149 mg/kg of body weight
dogs = conditions: ingestion of 300 to 2149 mg/kg of body weight
[3] = tested on: patients with osteoarthritis pain; conditions: oral administration, more than 3000 patients
[4] = tested on: outpatients with gonarthrosis
[5] = tested on: human blood glucose metabolism; conditions: human studies
rats [6] = conditions: rat, in vivo, po
mice = conditions: mouse, in vivo, po
rabbits [7] = conditions: rabbit, in vivo, po
[8] = intra-articular, after treatment
[9] = intra-articular, versus placebo

**Q.** What does the source list for `N[C@H]1C(O)O[C@H](CO)[C@@H](O)[C@@H]1O` (stereo partly drawn) [glucosamine]?
**A.** blood glucose levels (rats [1]): no effect on blood glucose levels; blood glucose levels (rabbits [2]): no effect on blood glucose levels; blood glucose levels (dogs): no effect on blood glucose levels; adverse effects on blood, urine or fecal parameters [3]: no adverse effects; effectiveness in treating osteoarthritis pain [3]: moderately to highly effective; local or general intolerance symptoms ([4]; during and after treatment): no local or general intolerance symptoms; angle of joint flexion [4, 8]: substantially increased; knee swelling [4, 8]: did not decrease significantly; active mobility [4, 9]: a more favourable trend after glucosamine administration; pain-free patients [4, 9]: significantly more pain-free patients; pain ([4]; one intra-articular injection per week for five weeks, versus placebo): reduced pain to a significantly greater extent than did placebo; plasma levels of glucose or insulin, insulin sensitivity or glucose oxidation [5]: did not affect; LD50 (rats [6]): exceed 5000 mg/kg; LD50 (mice): > 8000 mg/kg; LD50 (rabbits [7]): > 8000 mg/kg
